From patent US5110976A, “Insecticidal composition comprising more than one active ingredient” (priority 1985, dated 1992) come the findings set out here.

One series has as its system Acanthoscelides obtectus. Kind of series: Impregnated filter paper disc contact test, mortality (Table 1). The series is classed as in vivo, bean weevil (Acanthoscelides obtectus), imago. On the procedure: (§1) The stereoisomers are dissolved in a 1:2 mixture of mineral oil and acetone and filter paper discs (Whatman No. 1., diameter 9 cm) are impregnated with the corresponding dosage of the solution of the active ingredient. The acetone is allowed to evaporate and the insects are examined on filter paper discs placed into Petri-dishes. Three parallels are used for each dose and 15 animals are placed in each Petri-dish. Mortality rate is determined after 24 hours. The corrected mortality % data are calculated by means of the Abbot formula.

The test system of another series is tribolium confusum. The series is described as above. The format is in vivo, flour-beetle (tribolium confusum), imago. On the procedure:
as §1

The next series has as its system A. matricariae. Kind of series: Residual contact test on adults (Table 4). The series is classed as in vivo, Aphidinus matricariae, adult females. The procedure:
Adults of A. matricariae are exposed to residues of the active ingredients freshly applied on glass plates forming cages then the survivors are counted.
Treatments: test products(s) and control treated with water.
Replicates: at least 3. Plot size (net) 1 cage.
Parasites of known age 24 hours are used.
The products are applied at 5-1 ppm concentration, to each of the glass plates.
10 females of A. matricariae are introduced into each cage and supplied with honey as food. The number of females surviving exposure is determined after 1.5 and 24 hours, in independent runs. Total number of survivors is calculated for each cage.

In the case of `CC1(C)[C@H](C=C(Cl)Cl)[C@H]1C(=O)O[C@H](C#N)c1cccc(Oc2ccccc2)c1` (relative stereo) [Ib], the mortality (commonly the share of the test organisms that died) at 20 µg/disc with Acanthoscelides obtectus (Acanthoscelides obtectus, 0.02 mg/disc, 24 hours, Abbot corrected) turned out to be 32%; with tribolium confusum (Tribolium confusum, 0.02 mg/disc, 24 hours, Abbot corrected), 14%. The mortality at 70 µg/disc with Acanthoscelides obtectus (Acanthoscelides obtectus, 0.07 mg/disc, 24 hours, Abbot corrected) stood at 55%; in the series with tribolium confusum (Tribolium confusum, 0.07 mg/disc, 24 hours, Abbot corrected) it was 73%. Further, the mortality at 220 µg/disc with Acanthoscelides obtectus (Acanthoscelides obtectus, 0.22 mg/disc, 24 hours, Abbot corrected) turned out to be 87%; in the series with tribolium confusum (Tribolium confusum, 0.22 mg/disc, 24 hours, Abbot corrected), 100%. The mortality at 670 µg/disc with Acanthoscelides obtectus (Acanthoscelides obtectus, 0.67 mg/disc, 24 hours, Abbot corrected) turned out to be 100%; in the series with tribolium confusum (Tribolium confusum, 0.67 mg/disc, 24 hours, Abbot corrected), 100%. The mortality at 2000 µg/disc in the series with Acanthoscelides obtectus (Acanthoscelides obtectus, 2.0 mg/disc, 24 hours, Abbot corrected) worked out at 100%; in the series on tribolium confusum (Tribolium confusum, 2.0 mg/disc, 24 hours, Abbot corrected), 100%. Besides, the mortality at 6000 µg/disc in the series on Acanthoscelides obtectus (Acanthoscelides obtectus, 6.0 mg/disc, 24 hours, Abbot corrected) was 100%; in the series on tribolium confusum (Tribolium confusum, 6.0 mg/disc, 24 hours, Abbot corrected) it was 100%. Also, the comparative activity result in the series with Acanthoscelides obtectus (Ib versus Ia) and with tribolium confusum (Ib versus Ia) was “more active than enantiomer-pair Ia” each time. For the same molecule, the Mortality % in the series with A. matricariae (1 ppm, 1h) is reported as 0%; in the series with A. matricariae (1 ppm, 5h) it was 75%; with A. matricariae (1 ppm, 24h), 88%; in the series on A. matricariae (5 ppm, 1h), 100%.
